Laboratory results reported in article PMC10517138, “Varied effects of tobacco smoke and e-cigarette vapor suggest that nicotine does not affect endothelium-dependent relaxation and nitric oxide signaling” (Scientific Reports, 2023).

Biological target: T1, purified sGC (bovine lung soluble guanylyl cyclase) (Bos taurus, UniProt P16068)
T1 construct: gene GUCY1B1; native enzyme purified from bovine lung; with Guanylate cyclase soluble subunit alpha-1
T1 sequence (P16068 1-619): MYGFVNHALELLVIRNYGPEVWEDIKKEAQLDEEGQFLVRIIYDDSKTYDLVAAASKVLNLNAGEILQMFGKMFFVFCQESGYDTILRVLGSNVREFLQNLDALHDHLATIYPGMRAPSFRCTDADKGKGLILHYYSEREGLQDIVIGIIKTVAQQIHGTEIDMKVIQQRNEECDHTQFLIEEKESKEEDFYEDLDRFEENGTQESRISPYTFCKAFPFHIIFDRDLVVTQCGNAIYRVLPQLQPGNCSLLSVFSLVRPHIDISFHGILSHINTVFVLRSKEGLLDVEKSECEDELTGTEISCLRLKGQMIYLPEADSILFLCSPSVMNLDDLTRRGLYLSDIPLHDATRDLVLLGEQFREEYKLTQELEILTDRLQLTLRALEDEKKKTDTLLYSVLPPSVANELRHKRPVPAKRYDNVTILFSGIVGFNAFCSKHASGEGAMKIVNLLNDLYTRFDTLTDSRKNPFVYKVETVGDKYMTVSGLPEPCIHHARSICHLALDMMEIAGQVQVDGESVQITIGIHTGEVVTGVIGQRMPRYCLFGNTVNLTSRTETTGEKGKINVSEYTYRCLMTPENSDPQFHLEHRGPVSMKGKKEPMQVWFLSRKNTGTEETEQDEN
T1 sequence (P19687 1-691 partner): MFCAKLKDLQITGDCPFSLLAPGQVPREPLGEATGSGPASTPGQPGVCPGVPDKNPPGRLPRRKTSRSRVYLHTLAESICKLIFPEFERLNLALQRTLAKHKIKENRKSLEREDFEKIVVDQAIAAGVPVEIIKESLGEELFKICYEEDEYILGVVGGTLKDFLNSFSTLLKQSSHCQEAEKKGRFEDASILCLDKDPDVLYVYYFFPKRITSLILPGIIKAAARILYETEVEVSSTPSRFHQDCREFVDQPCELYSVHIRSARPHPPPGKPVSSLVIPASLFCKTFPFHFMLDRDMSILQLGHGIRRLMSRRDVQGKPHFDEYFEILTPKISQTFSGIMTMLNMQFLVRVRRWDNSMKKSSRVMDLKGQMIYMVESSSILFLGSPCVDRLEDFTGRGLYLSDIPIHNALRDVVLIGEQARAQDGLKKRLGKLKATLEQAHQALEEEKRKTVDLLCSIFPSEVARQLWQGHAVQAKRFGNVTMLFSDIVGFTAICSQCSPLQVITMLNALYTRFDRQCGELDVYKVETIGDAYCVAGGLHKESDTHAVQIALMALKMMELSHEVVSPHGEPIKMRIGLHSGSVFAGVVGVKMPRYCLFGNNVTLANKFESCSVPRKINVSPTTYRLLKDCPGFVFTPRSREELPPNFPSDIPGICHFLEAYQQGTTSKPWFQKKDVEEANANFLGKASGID
Experiment: […]cGMP formation from [alpha-32P]GTP by purified sGC
Format: biochemical
Details: 0.5 mM GTP, 3 mM MgCl2, 1 mM cGMP, 0.5% Tween 20 (heme-depleted enzyme), TEA/HCl pH 7.4, 37 °C, no extract; NO-independent heme-site activator

O=C(O)CCCCN(CCc1ccccc1OCc1ccc(CCc2ccccc2)cc1)Cc1ccc(C(=O)O)cc1 [cinaciguat]
cGMP formation (activation): cGMP formation by Tween 20-treated sGC in the presence of the NO-independent heme-site activator cinaciguat
